Measured values as given in patent publication US20240025884A1 (Dong-A ST Co., Ltd., priority 2022, published 2024).

Target: GCN2 (Homo sapiens (Human), UniProt Q9P2K8)
Experiment: GCN2 Biochemical Assay (TR-FRET, GFP-eIF2S1 substrate phosphorylation)
Conditions: read-out: IC50 (GCN2 Inhibitory Activity)
Procedure: Experimental Example 1: GCN2 Biochemical Assay
An inhibitory effect of the inventive compound on GCN2 was identified as follows.
384-well (Greiner #784075) (or 1536-well [Greiner #782075]) plates containing 60 nl (or 20 nl for 1536-well) of compound in 100% DMSO (10 concentrations serially diluted 3.16-fold) were prepared. Two copies of plates were used—one for the GCN2 assay and a second for an artifact plate. Working reagents were prepared as follows—reaction buffer: Tris pH 7.5 20 mM, MgCl2 5 mM, DTT 1 mM, Brij-35 0.005%, EGTA 0.5 mM in water; 2× enzyme solution: GCN2 (produced in-house) 1.6 nM in reaction buffer; 2× substrate solution: GFP-eIFS1 (Thermo Fisher Scientific, PV4809) 50 nM, ATP 0.2 mM, tRNA 0.4 mg/ml in reaction buffer; p-GFP-eIF2S1 (artifact) solution: p-GFP-eIFS1 (produced by incubation of 100 nM GFP-eIF2S1 in reaction buffer with 100 uM ATP and 1 nM PERK KD enzyme for 3 hr at room temperature) 2 nM in reaction buffer; 3× stop/antibody solution: p-GFP-EIF2S1 Th-Ab (Thermo Fisher Scientific, PV4816) 6 nM, AZ13933939 3 uM, BSA 3% in reaction buffer. Reagents were loaded onto a liquid dispenser (Certus FLEX, Trajan Scientific and Medical), and 3 ul (1 ul for 1536-well) of 2× enzyme solution, followed by 3 ul (1 ul for 1536-well) of 2× substrate solution was added to the plates. When small numbers of plates were processed, the enzyme solution was added first to all plates, then the valve used for the substrate solution was primed immediately prior to use. Plates were tapped or spun 1 min/1K/RT to ensure proper mixing, followed by incubation at room temperature for 70 mins, covered/stacked in the dark. For the artifact plate, 6 ul of p-GFP-eIF2S1 solution was added prior to adding the stop/antibody solution. 3 ul (1 ul for 1536-well) of 3× stop/antibody solution was added to the plates, followed by a spin-down for 1 min/1K/RT, and incubation for 2-3 hr, sealed or covered with lids in the dark at room temperature. Plates were read on a plate reader (PHERAstar FSX, BMF Labtech) at Ex 340/Em 490/Em 520 nm.

GCN2, sequence (Q9P2K8 whole entry): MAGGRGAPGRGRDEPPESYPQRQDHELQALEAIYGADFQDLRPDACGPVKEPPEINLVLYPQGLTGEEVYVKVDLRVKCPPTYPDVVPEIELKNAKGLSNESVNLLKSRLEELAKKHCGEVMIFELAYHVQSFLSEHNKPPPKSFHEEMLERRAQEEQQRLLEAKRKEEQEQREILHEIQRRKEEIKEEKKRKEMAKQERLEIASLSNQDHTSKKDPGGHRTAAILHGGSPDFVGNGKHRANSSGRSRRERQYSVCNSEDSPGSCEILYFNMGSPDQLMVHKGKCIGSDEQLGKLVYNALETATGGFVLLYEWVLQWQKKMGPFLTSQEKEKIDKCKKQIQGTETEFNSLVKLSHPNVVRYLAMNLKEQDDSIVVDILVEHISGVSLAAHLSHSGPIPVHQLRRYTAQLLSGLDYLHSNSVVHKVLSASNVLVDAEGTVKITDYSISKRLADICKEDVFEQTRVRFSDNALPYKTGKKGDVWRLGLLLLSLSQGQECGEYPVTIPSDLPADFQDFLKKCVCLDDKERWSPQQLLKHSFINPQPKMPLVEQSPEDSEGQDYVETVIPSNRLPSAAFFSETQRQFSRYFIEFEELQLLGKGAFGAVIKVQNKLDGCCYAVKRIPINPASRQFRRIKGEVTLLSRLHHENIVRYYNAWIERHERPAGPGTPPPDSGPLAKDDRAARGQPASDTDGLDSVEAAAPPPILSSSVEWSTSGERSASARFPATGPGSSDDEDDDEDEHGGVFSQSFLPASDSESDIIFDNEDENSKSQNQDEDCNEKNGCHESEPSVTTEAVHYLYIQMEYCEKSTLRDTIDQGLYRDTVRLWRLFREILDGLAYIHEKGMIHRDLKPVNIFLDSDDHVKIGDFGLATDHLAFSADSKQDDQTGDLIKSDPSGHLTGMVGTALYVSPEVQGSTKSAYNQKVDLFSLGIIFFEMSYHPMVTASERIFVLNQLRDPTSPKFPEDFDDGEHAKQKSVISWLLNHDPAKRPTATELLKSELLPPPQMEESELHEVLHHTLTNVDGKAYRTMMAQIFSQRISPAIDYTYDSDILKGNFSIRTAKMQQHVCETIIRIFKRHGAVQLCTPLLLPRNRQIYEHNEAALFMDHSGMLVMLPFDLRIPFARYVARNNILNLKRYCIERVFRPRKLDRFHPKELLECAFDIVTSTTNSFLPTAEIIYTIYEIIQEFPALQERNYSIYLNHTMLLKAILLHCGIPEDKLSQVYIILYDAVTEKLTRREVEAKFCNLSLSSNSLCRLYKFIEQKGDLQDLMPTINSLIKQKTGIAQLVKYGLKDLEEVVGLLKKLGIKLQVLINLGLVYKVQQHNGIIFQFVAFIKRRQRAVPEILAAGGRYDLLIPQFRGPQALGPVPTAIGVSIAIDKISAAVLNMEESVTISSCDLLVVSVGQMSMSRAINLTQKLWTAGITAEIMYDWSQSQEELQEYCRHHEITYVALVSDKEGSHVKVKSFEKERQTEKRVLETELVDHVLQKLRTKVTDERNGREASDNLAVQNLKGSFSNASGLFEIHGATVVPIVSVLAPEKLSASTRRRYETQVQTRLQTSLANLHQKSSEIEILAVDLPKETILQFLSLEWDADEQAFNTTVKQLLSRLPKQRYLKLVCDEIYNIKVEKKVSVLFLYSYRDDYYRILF

| IC50 | SMILES |
| --- | --- |
| < 10 nM | CCc1cnc(Nc2cc(C)n(C)n2)nc1-c1c[nH]c2c(NC(=O)CN3CC[C@H](Oc4ccnc(NC5CC5)n4)C3)cccc12 (stereo in doubt) [Example 11, (3-((2-(cyclopropylamino)pyrimidin-4-yl)oxy)pyrrolidin-1-yl)-N-(3-(2-((1,5-dimethyl-1H-pyrazol-3-yl)amino)-5-ethylpyrimidin-4-yl)-1H-indol-7-yl)acetamide] |
| 10 to 100 nM | Cc1cnc(Nc2cc(C)n(C)n2)nc1-c1c[nH]c2c(NC(=O)CN3CCC(Oc4cc(C(F)(F)F)n(C)n4)C3)cccc12 (stereo in doubt) [Example 117, (R)-N-(3-(2-((1,5-dimethyl-1H-pyrazol-3-yl)amino)-5-methylpyrimidin-4-yl)-1H-indol-7-yl)-2-(3-((1-methyl-5-(trifluoromethyl)-1H-pyrazol-3-yl)oxy)pyrrolidin-1-yl)acetamide] |
| 100 to 1000 nM | Cc1cnc(Nc2cc(C)n(C)n2)nc1-c1c[nH]c2c(NC(=O)CN3CC[C@H](Oc4cnc(-c5ccccc5)nc4)C3)cccc12 (stereo in doubt) [Example 257, N-(3-(2-((1,5-dimethyl-1H-pyrazol-3-yl)amino)-5-methylpyrimidin-4-yl)-1H-indol-7-yl)-2-(3-((2-phenylpyrimidin-5-yl)oxy)pyrrolidin-1-yl)acetamide] |
| < 10 nM | Cc1cnc(Nc2cc(C)n(C)n2)nc1-c1c[nH]c2c(NC(=O)CN3CC[C@H](Oc4ccnc(NC5CC5)n4)C3)c(F)ccc12 [Example 1, (S)-2-(3-((2-(cyclopropylamino)pyrimidin-4-yl)oxy)pyrrolidin-1-yl)-N-(3-(2-((1,5-dimethyl-1H-pyrazol-3-yl)amino)-5-methylpyrimidin-4-yl)-6-fluoro-1H-indol-7-yl)acetamide] |
| 10 to 100 nM | Cc1cnc(Nc2cc(C)n(C)n2)nc1-c1c[nH]c2c(NC(=O)CN3CC[C@H](Oc4ccnc(NC5CC5)n4)C3)cc(N)cc12 [Example 2, (S)-N-(5-amino-3-(2-((1,5-dimethyl-1H-pyrazol-3-yl)amino)-5-methylpyrimidin-4-yl)-1H-indol-7-yl)-2-(3-((2-(cyclopropylamino)pyrimidin-4-yl)oxy)pyrrolidin-1-yl)acetamide] |
| < 10 nM | Cc1cnc(Nc2cc(C)n(C)n2)nc1-c1c[nH]c2c(NC(=O)CN3CC[C@H](Oc4ccnc(NC5CC5)n4)C3)c(N(C)C)ccc12 [Example 3, (S)-2-(3-((2-(cyclopropylamino)pyrimidin-4-yl)oxy)pyrrolidin-1-yl)-N-(3-(2-((1,5-dimethyl-1H-pyrazol-3-yl)amino)-5-methylpyrimidin-4-yl)-6-(dimethylamino)-1H-indol-7-yl)acetamide] |
| < 10 nM | COc1ccc2c(-c3nc(Nc4cc(C)n(C)n4)ncc3C)c[nH]c2c1NC(=O)CN1CC[C@H](Oc2ccnc(NC3CC3)n2)C1 [Example 4, (S)-2-(3-((2-(cyclopropylamino)pyrimidin-4-yl)oxy)pyrrolidin-1-yl)-N-(3-(2-((1,5-dimethyl-1H-pyrazol-3-yl)amino)-5-methylpyrimidin-4-yl)-6-methoxy-1H-indol-7-yl)acetamide] |
| < 10 nM | Cc1cnc(Nc2cc(C)n(C)n2)nc1C1=CCc2c1ccc(N(C)C)c2NC(=O)CN1CC[C@H](Oc2ccnc(NCC(F)(F)F)n2)C1 [Example 5, (S)-N-(3-(2-((1,5-dimethyl-1H-pyrazol-3-yl)amino)-5-methylpyrimidin-4-yl)-6-(dimethylamino)-1H-inden-7-yl)-2-(3-((2-((2,2,2-trifluoroethyl)amino)pyrimidin-4-yl)oxy)pyrrolidin-1-yl)acetamide] |
| 10 to 100 nM | COc1ccc2c(-c3nc(Nc4cc(C)n(C)n4)ncc3C)c[nH]c2c1NC(=O)CN1CC[C@H](Oc2ccnc(NCC(F)(F)F)n2)C1 [Example 6, (S)-N-(3-(2-((1,5-dimethyl-1H-pyrazol-3-yl)amino)-5-methylpyrimidin-4-yl)-6-methoxy-1H-indol-7-yl)-2-(3-((2-((2,2,2-trifluoroethyl)amino)pyrimidin-4-yl)oxy)pyrrolidin-1-yl)acetamide] |
| < 10 nM | Cc1cc(Nc2nccc(-c3c[nH]c4c(NC(=O)CN5CC[C@H](Oc6cc(NC7CC7)ncn6)C5)cccc34)n2)nn1C [Example 7, (S)-2-(3-((6-(cyclopropylamino)pyrimidin-4-yl)oxy)pyrrolidin-1-yl)-N-(3-(2-((1,5-dimethyl-1H-pyrazol-3-yl)amino)pyrimidin-4-yl)-1H-indol-7-yl)acetamide] |
| < 10 nM | Cc1cc(Nc2ncc(F)c(-c3c[nH]c4c(NC(=O)CN5CC[C@H](Oc6ccncc6)C5)cccc34)n2)nn1C [Example 8, (S)-N-(3-(2-((1,5-dimethyl-1H-pyrazol-3-yl)amino)-5-fluoropyrimidin-4-yl)-1H-indol-7-yl)-2-(3-(pyridin-4-yloxy)pyrrolidin-1-yl)acetamide] |
| < 10 nM | Cc1cc(Nc2ncc(Cl)c(-c3c[nH]c4c(NC(=O)CN5CC[C@H](Oc6ccncc6)C5)cccc34)n2)nn1C [Example 9, (S)-N-(3-(5-chloro-2-((1,5-dimethyl-1H-pyrazol-3-yl)amino)pyrimidin-4-yl)-1H-indol-7-yl)-2-(3-(pyridin-4-yloxy)pyrrolidin-1-yl)acetamide] |
| 10 to 100 nM | Cc1cc(Nc2ncc(C3CC3)c(-c3c[nH]c4c(NC(=O)CN5CC[C@H](Oc6ccnc(NC7CC7)n6)C5)cccc34)n2)nn1C [Example 12, (S)-N-(3-(5-cyclopropyl-2-((1,5-dimethyl-1H-pyrazol-3-yl)amino)pyrimidin-4-yl)-1H-indol-7-yl)-2-(3-((2-(cyclopropylamino)pyrimidin-4-yl)oxy)pyrrolidin-1-yl)acetamide] |
| < 10 nM | COc1cnc(Nc2cc(C)n(C)n2)nc1-c1c[nH]c2c(NC(=O)CN3CC[C@H](Oc4ccnc(NC5CC5)n4)C3)cccc12 [Example 13, (S)-2-(3-((2-(cyclopropylamino)pyrimidin-4-yl)oxy)pyrrolidin-1-yl)-N-(3-(2-((1,5-dimethyl-1H-pyrazol-3-yl)amino)-5-methoxypyrimidin-4-yl)-1H-indol-7-yl)acetamide] |
| < 10 nM | COc1cnc(Nc2cc(C)n(C)n2)nc1-c1c[nH]c2c(NC(=O)CN3CC[C@H](Oc4cnnc(NC5CC5)n4)C3)cccc12 [Example 14, (S)-2-(3-((3-(cyclopropylamino)-1,2,4-triazin-5-yl)oxy)pyrrolidin-1-yl)-N-(3-(2-((1,5-dimethyl-1H-pyrazol-3-yl)amino)-5-methoxypyrimidin-4-yl)-1H-indol-7-yl)acetamide] |
| < 10 nM | Cc1cnc(Nc2cc3n(n2)CCC3)nc1-c1c[nH]c2c(NC(=O)CN3CC[C@H](Oc4ccncn4)C3)cccc12 [Example 15, (S)-N-(3-(2-((5,6-dihydro-4H-pyrrolo[1,2-b]pyrazol-2-yl)amino)-5-methylpyrimidin-4-yl)-1H-indol-7-yl)-2-(3-(pyrimidin-4-yloxy)pyrrolidin-1-yl)acetamide] |
| < 10 nM | Cc1cnc(Nc2cc3n(n2)CCC3)nc1-c1c[nH]c2c(NC(=O)CN3CC[C@H](Oc4ccnc(NC5CC5)n4)C3)cccc12 [Example 16, (S)-2-(3-((2-(cyclopropylamino)pyrimidin-4-yl)oxy)pyrrolidin-1-yl)-N-(3-(2-((5,6-dihydro-4H-pyrrolo[1,2-b]pyrazol-2-yl)amino)-5-methylpyrimidin-4-yl)-1H-indol-7-yl)acetamide] |
| < 10 nM | Cc1cnc(Nc2cc(C)n(CCN3CCOCC3)n2)nc1-c1c[nH]c2c(NC(=O)CN3CC[C@H](Oc4ccnc(NC5CC5)n4)C3)cccc12 [Example 17, (S)-2-(3-((2-(cyclopropylamino)pyrimidin-4-yl)oxy)pyrrolidin-1-yl)-N-(3-(5-methyl-2-((5-methyl-1-(2-morpholinoethyl)-1H-pyrazol-3-yl)amino)pyrimidin-4-yl)-1H-indol-7-yl)acetamide] |
| 10 to 100 nM | Cc1cnc(Nc2cc(C)n(C)n2)nc1-c1c[nH]c2c(NC(=O)C(=O)N3CC[C@H](Oc4ccncc4)C3)cccc12 [Example 18, (S)-N-(3-(2-((1,5-dimethyl-1H-pyrazol-3-yl)amino)-5-methylpyrimidin-4-yl)-1H-indol-7-yl)-2-ox0-2-(3-(pyridin-4-yloxy)pyrrolidin-1-yl)acetamide] |
| 10 to 100 nM | Cc1cnc(Nc2cc(C)n(C)n2)nc1-c1c[nH]c2c(NC(=O)C(=O)N3CCC(Oc4ccccn4)C3)cccc12 (stereo not drawn) [Example 19] |
| < 10 nM | Cc1cnc(Nc2cc(C)n(C)n2)nc1-c1c[nH]c2c(NC(=O)C(=O)N3CC[C@H](Oc4ccnc(NC5CC5)n4)C3)cccc12 [Example 20, (S)-2-(3-((2-(cyclopropylamino)pyrimidin-4-yl)oxy)pyrrolidin-1-yl)-N-(3-(2-((1,5-dimethyl-1H-pyrazol-3-yl)amino)-5-methylpyrimidin-4-yl)-1H-indol-7-yl)-2-oxoacetamide] |
